The values below come from patent US20260256775A1, “METHOD FOR TREATING MENTAL DISEASES” (SHANGHAI RAISING PHARMACEUTICAL CO., LTD., priority 2022, published 2026).

For experiment [1], the system named is Chronic Unpredictable Mild Stress (CUMS) Depressive Rats. In words: Forced swimming test (FST) in CUMS model rats. To be noted: 8th week of CUMS, 6-minute forced swimming, trazodone 10 mg/kg/day ig, x ± SD.
For experiment [2] the test system is unchanged. In words: Sucrose preference test (SPT) in CUMS model rats. To be noted: trazodone 10 mg/kg/day ig, x ± SD; for SPT After 2 Weeks of Treatment (%): 5th week of CUMS; for SPT After 4 Weeks of Treatment (%): 7th week of CUMS.
Experiment [3] shares this test system. As to the kind of experiment: Elevated plus maze (EPM) test in CUMS model rats. To be noted: 9th week of CUMS, 5-minute EPM, trazodone 10 mg/kg/day ig, x ± SD.

With `O=c1n(CCCN2CCN(c3cccc(Cl)c3)CC2)nc2ccccn12` [Trazodone], the “Immobility Time in FST After 5 Weeks of Treatment (s)” value is listed as 82.28 ± 21.64 ^ s in experiment [1] (n=8) and “reduced” in experiment [1] (n=8, listed as trazodone). Besides, the “SPT After 2 Weeks of Treatment (%)” value is 74.00 ± 11.22% in experiment [2] (n=8) and “no significant difference” in experiment [2] (n=8, listed as trazodone). Besides, the “SPT After 4 Weeks of Treatment (%)” value is 84.55 ± 16.77 ^ % in experiment [2] (n=8) and “significantly increased” in experiment [2] (n=8, listed as trazodone). In addition, the “Time Spent Exploring the Open Arms in the 6th Week of Treatment (s)” value is given as 4.90 ± 2.06 ^ s in experiment [3] (n=8) and “no significant change” in experiment [3] (n=8, listed as trazodone).
